Source: patent US20080305520A9, “Mechanosensitive ion channels and methods of use” (priority 2004, published 2008)
“Also recorded” adds a separate entry of the source.

Columns and labels:
MscCa = assay: Pressure-clamp cell-attached patch recording of MscCa currents in Xenopus oocytes; format: cell-based; conditions: oocyte cell-attached patches; EGTA left out of pipette solution
prostate tumor cell = conditions: medium containing serum; Cancer Letters 145 (1999); cited from earlier work
PC3 cells = assay: PC3 cell migration by time-lapse videomicroscopy; format: cell-based, human; conditions: for PC3 cell migration: one hour intervals before, during and after exposure; for reversibility of migration block with washout: up to 1 hour
Description: The effect of the three anti-MscCa agents on PC3 cell migration was tested using time-lapse videomicroscopy to record the trajectory of the migrating prostate tumor cells. Selected video frames were prepared at 15 minute intervals, showing a cluster of 7 PC3 cells as they migrate out from the cluster. […] All three agents blocked cell migration.
(§1) Time-lapse videomicroscopy and Ca 2-imaging were conducted as follows. Cell migration was monitored by time-lapse videomicroscopy using Nomarski optics with an Epifluorescent microscope (TE 200). The time-lapse images were acquired and saved at 5 minute intervals using Metafluor software. Calcium imaging assays were carried out on cells previously loaded with Fura-2 AM (5 tm for 30 minutes). Time-lapse fluorescence images were consecutively acquired at 340 and 380 wavelengths and transmission (DIC) at intervals of I minute using Metafluor. Data analysis was carried out using Metamorph (Version 6. 1) and Excel] 2000. Conversion of pixels to gm based on a calibrated slide to represent the cell trajectories in the field.
(§2) The day before transfection cells were seeded at 50-60% density on sterile coverslips in a 6 well plate in culture medium without antibiotic. Transfection of 100 nM of double stranded siRNA Cy3 labeled per well (Ambion #731 1 and negative control, Ambion, Austin, TX was carried using Lipofectamine 2000 (Invitrogen, Carlsbad, CA) according to the manufacturer's instructions for siRNA transfections. Cells were stored in the incubator after the addition of the complexes and 7% FCS medium without antibiotic was added after the first 6 hours of transfection. The next day the supernatant was removed and normal culture medium replaced. Cells were tested by patch clamp and videomicroscopy during the next 48-72 hours, using the patch clamp and videomicroscopy methods described above in examples 4 and 5. […] The foregoing detailed description and examples have been given for clarity of understanding only. No unnecessary limitations are to be understood therefrom. The invention is not limited to the exact details shown and described, for variations obvious to one skilled in the art will be included within the invention defined by the claims.

MscCa in PC3 cells = molecular target: T1, MscCa in PC3 cells (Homo sapiens, UniProt P48995); assay: Cell-attached patch-clamp recording of MscCa activity in PC3 cells; format: cell-based
T1 construct: host or cells: PC3 human prostate tumor cells
Description: PC3 cell lines were grown in RPM1 1640 medium with 25 mM Hepes and glutamine, supplemented with 7% fetal calf serum, I mM sodium pyruvate, 4.5 g/L glucose, penicillin G (10,000 U/ml) and streptomycin sulfate (10,000 tg/ml) at 37° C. in a humidified 95% 02-5% C02 atmosphere. For patch-lamp studies, cells were seeded at low density on sterile coverslips placed in 33 mm culture dishes and tested during the next 2 - 5 days. Patch clamp recording was conducted as follows. Standard cell-attached patch-clamp recording was used to record single channel currents. The pipettes were made from thin-walled borosilicate glass (World Precision Instruments, Stevenage, UK) with an outside tip diameter of -2 Wm. Immediately prior to patch clamping, a cover slip was removed from the culture dish, glued with dots of silcone to a 35 mm culture, and placed in a microscope stage holder. Cells were visualized with an IM35 Zeiss microscope with fluorescence and Normaski optics. A pressure-clamp (McBride, D.W., Jr. & Hamill, O. P., PflLigers Archiv. 421, 606-612 (1992)) was used to apply pressure and suction protocols to achieve the initial tight seal and stimulate MS channels. […] This voltage-dependent gating of the open channel is also a characteristic of the prototypical MscCa, native to the frog oocyte (Taglietti et al., J. Physiol., 407, 311 (1988)), identified as being formed by the transient receptor channel protein I (TRPCI). The current-voltage relationship of the prostate MscCa measured with a 100 mM K+, zero Ca^2+in the pipette solution indicates an inwardly rectifying single channel conductance (-70 pS chord conductance at -100 mV and 20 pS at 50 mV) (Fig. • SB) that is essentially identical to that of the oocyte MscCa indicating a common pore structure. […] In the “sustained mode” (SM), the channels remained open for the duration of stimulation (Fig. SC), while in the “transient mode” (TM) the channels closed rapidly (cO.5 s) (FIG. 5C). […]

[1] = system: [Ca^2+]i fluctuations in migrating PC3 cells; assay: Fura-2 Ca2+ imaging of [Ca2+]i fluctuations in migrating PC3 cells; format: cell-based, human; conditions: for sustained and transient [Ca^2+]i oscillations: same concentrations that blocked/reduced MscCa activity and PC3 cell migration, 9 cells, 3 experiments
Description: Two distinct types of [Ca^2+]i fluctuations were observed; a sustained Ca^2+)1 that increased from the front of the cell to the rear and was maintained for the duration of the locomotion cycle (up to 3 hours) measured from tether formation to tether release; and a fast transient [Ca2+i wave that spread rapidly through out the cell and lasted <1 minute (the time interval between frames) with an average frequency of 6 waves in 30 minutes. Both sustained and transients [Ca2+]i fluctuations were associated with moving cells. All three anti-MscCa agents described above, abolished both forms of [Ca^2+]i oscillations at the same concentrations that blocked/reduced MscCa activity and PC3 cell migration (9 cells, 3 experiments). Again, whereas with Gd and GsmTx4 the block was reversible, there was no recovery after the anti-TRPCI Ab washout.
as §1, §2

[2] = system: fish epithelial keratocyte; conditions: Lee et al., Nature 400 (1999), cited from earlier work
prostate tumor cells = conditions: cited from earlier work
[3] = system: Ca^2+-activated K+channel; assay: Delayed outward channel currents after MscCa activation, PC3 cell-attached patch; format: cell-based, human; conditions: 50 nM charybdotoxin in the pipette solution; 1 mM external Ca^2+
Description: PC3 cell lines were grown in RPM1 1640 medium with 25 mM Hepes and glutamine, supplemented with 7% fetal calf serum, I mM sodium pyruvate, 4.5 g/L glucose, penicillin G (10,000 U/ml) and streptomycin sulfate (10,000 tg/ml) at 37° C. in a humidified 95% 02-5% C02 atmosphere. For patch-lamp studies, cells were seeded at low density on sterile coverslips placed in 33 mm culture dishes and tested during the next 2 - 5 days. Patch clamp recording was conducted as follows. Standard cell-attached patch-clamp recording was used to record single channel currents. The pipettes were made from thin-walled borosilicate glass (World Precision Instruments, Stevenage, UK) with an outside tip diameter of -2 Wm. Immediately prior to patch clamping, a cover slip was removed from the culture dish, glued with dots of silcone to a 35 mm culture, and placed in a microscope stage holder. Cells were visualized with an IM35 Zeiss microscope with fluorescence and Normaski optics. […] The current-voltage relationship of the prostate MscCa measured with a 100 mM K+, zero Ca^2+in the pipette solution indicates an inwardly rectifying single channel conductance (-70 pS chord conductance at -100 mV and 20 pS at 50 mV) (Fig. • SB) that is essentially identical to that of the oocyte MscCa indicating a common pore structure. […]

T1 sequence (P48995 whole entry): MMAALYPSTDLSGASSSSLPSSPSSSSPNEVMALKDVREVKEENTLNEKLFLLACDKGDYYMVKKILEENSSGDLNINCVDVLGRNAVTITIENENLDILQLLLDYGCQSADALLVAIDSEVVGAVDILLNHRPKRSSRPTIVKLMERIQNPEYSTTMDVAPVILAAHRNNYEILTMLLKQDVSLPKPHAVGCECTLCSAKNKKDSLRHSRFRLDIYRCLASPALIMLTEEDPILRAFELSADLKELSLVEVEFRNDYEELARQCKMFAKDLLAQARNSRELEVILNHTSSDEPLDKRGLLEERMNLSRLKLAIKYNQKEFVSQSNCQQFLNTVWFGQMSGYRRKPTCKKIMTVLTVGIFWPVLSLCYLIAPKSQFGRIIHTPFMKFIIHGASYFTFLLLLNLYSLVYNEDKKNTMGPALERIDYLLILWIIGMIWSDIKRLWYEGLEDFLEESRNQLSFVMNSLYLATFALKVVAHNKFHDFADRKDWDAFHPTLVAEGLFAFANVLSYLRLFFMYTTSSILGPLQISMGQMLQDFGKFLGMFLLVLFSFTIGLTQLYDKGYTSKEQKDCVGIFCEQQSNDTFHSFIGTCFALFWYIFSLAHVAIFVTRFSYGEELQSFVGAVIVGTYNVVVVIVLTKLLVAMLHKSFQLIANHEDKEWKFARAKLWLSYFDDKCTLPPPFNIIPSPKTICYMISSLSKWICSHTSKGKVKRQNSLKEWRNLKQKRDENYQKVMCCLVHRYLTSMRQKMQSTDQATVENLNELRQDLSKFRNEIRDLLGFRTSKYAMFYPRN

## [Gd+3] [Gd^3+, gadolinium ion]
MscCa
  block of native and TRPC1-expressed MscCa: equally effective in blocking
Prostate tumor cell
  prostate tumor cell motility: enhanced rather than inhibited
PC3 cells; Gd^3+
  PC3 cell migration: blocked
PC3 cells
  reversibility of migration block with washout: reversible
MscCa in PC3 cells; Gd^3+ also included in the pipette-tip solution, 20 out of 20 patches
  MscCa activity: abolished
MscCa in PC3 cells; Gd^3+ in back solution at 5 µM, -3 minutes after tight seal, pressure steps
  MscCa patch current (channel block): block the channel
[1]
  sustained and transient [Ca^2+]i oscillations: abolished
  reversibility of block of [Ca^2+]i oscillations after washout: reversible
[2]
  Ca^2+ transients: abolishes
[2]; prevents rear detachment
  cell migration: inhibiting

## NC1=N[C@H](O)[C@H]2[C@H]3O[C@]4(O)O[C@@H]([C@@H](O)[C@@]2(N1)[C@@H]4O)[C@]3(O)CO [tetrodotoxin]
Prostate tumor cells
  invasiveness: reduce invasiveness

## GCLEFWWKCNPNDDKCCRPKLKCSKLFKLCNFSSG [GsmTx-4]
PC3 cells; GsMTx-4 3 μM
  PC3 cell migration: blocked
PC3 cells
  reversibility of migration block with washout: reversible
MscCa in PC3 cells; 3 μM GsmTx-4 in pipette, SM or TM gating mode
  MscCa activity: blocked; also recorded: effective in blocking
[1]
  sustained and transient [Ca^2+]i oscillations: abolished
  reversibility of block of [Ca^2+]i oscillations after washout: reversible

## charybdotoxin (QFTNVSCTTSKECWSVCQRLHNTSRGKCMNKKCRCYS)
[3]
  delayed activation of outward channel currents after MscCa inward currents: absent
